PubChem BioAssay (NCI)
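1) Cells in 96-well plates. 2) Compound, 48 h, 5 concentrations. 3) Linear interpolation between surrounding doses. 4) Unreached endpoint = highest concentration. GI50 is the concentration that inhibits growth by half. TGI: total growth inhibition.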

Legend:
Assay in all cases: NCI anticancer screen, dose series, 48 h
[1] = test system: TK-10 renal
[2] = test system: MCF7 breast
[3] = test system: HS 578T breast
[4] = test system: MDA-MB-231 breast
[5] = test system: HCT-15 colon
[6] = test system: A498 renal
[7] = test system: HOP-62 NSCLC
[8] = test system: OVCAR-4 ovarian
[9] = test system: EKVX NSCLC
[10] = test system: SF-539 CNS
[11] = test system: IGROV1 ovarian
[12] = test system: SK-MEL-5 melanoma
[13] = test system: A549 NSCLC
[14] = test system: CAKI-1 renal
[15] = test system: SK-MEL-2 melanoma
[16] = test system: RXF 393 renal
[17] = test system: SF-268 CNS
[18] = test system: OVCAR-8 ovarian
[19] = test system: K-562 leukemia
[20] = test system: HL-60(TB) leukemia
[21] = test system: LOX IMVI melanoma
[22] = test system: UACC-62 melanoma
[23] = test system: SK-MEL-28 melanoma
[24] = test system: OVCAR-3 ovarian
[25] = test system: HT29 colon
[26] = test system: HOP-92 NSCLC
[27] = test system: MALME-3M melanoma
[28] = test system: M14 melanoma
[29] = test system: SN12C renal

O=c1c(I)c[nH]cc1I
GI50 [1]: > 100 µM
TGI [1]: > 100 µM
GI50 [2]: > 100 µM
TGI [2]: > 100 µM
GI50 [3]: > 100 µM
TGI [3]: > 100 µM
GI50 [4]: > 100 µM
TGI [4]: > 100 µM
GI50 [5]: > 100 µM
TGI [5]: > 100 µM
GI50 [6]: > 100 µM
TGI [6]: > 100 µM
GI50 [7]: > 100 µM
TGI [7]: > 100 µM
GI50 [8]: > 100 µM
TGI [8]: > 100 µM
GI50 [9]: > 100 µM
TGI [9]: > 100 µM
GI50 [10]: > 100 µM
TGI [10]: > 100 µM
GI50 [11]: 98.3 µM
TGI [11]: > 100 µM
GI50 [12]: > 100 µM
TGI [12]: > 100 µM
GI50 [13]: > 100 µM
TGI [13]: > 100 µM
GI50 [14]: > 100 µM
TGI [14]: > 100 µM
GI50 [15]: > 100 µM
TGI [15]: > 100 µM
GI50 [16]: > 100 µM
TGI [16]: > 100 µM
GI50 [17]: > 100 µM
TGI [17]: > 100 µM
GI50 [18]: > 100 µM
TGI [18]: > 100 µM
GI50 [19]: > 100 µM
TGI [19]: > 100 µM
GI50 [20]: > 100 µM
TGI [20]: > 100 µM
GI50 [21]: > 100 µM
TGI [21]: > 100 µM
GI50 [22]: > 100 µM
TGI [22]: > 100 µM
GI50 [23]: > 100 µM
TGI [23]: > 100 µM
GI50 [24]: > 100 µM
TGI [24]: > 100 µM
GI50 [25]: > 100 µM
TGI [25]: > 100 µM
GI50 [26]: 67.1 µM
TGI [26]: > 100 µM
GI50 [27]: > 100 µM
TGI [27]: > 100 µM
GI50 [28]: > 100 µM
TGI [28]: > 100 µM
GI50 [29]: > 100 µM
TGI [29]: > 100 µM
